Data as given in patent US20230014352A1, “INHALED STATINS AS BRONCHODILATORS TO IMPROVE LUNG FUNCTION IN RESPIRATORY DISEASES” (priority 2019, published 2023).
Entries after “also recorded” stand apart in the source; their conditions may differ. Like-named read-outs stand apart in the source and are kept apart here.

Columns and labels:
[1] = system: primary human airway smooth muscle (ASM) cells; experiment: Contractile force screening (CFS), basal ASM cell contraction (strain energy); type: cell-based; settings: for strain energy (ASM contraction) / basal ASM cell contraction: 24 hours; for strain energy (ASM contraction): compared to pravastatin, FIG. 1C; for basal ASM cell contraction: FIG. 1A/1D
Experimental: Primary human airway smooth muscle (ASM) cells derived from both non-asthmatic and asthmatic donors were obtained from the Gift of Hope Organ and Tissue Donor Network. These cells have been well-characterized previously (see for example H. Yoshie et al., Biophys J (2018) 114(9):2194-99). All measurements were performed using cells at passage 5-8 from three non-asthmatic donors. Cells were grown on either 10% serum-containing F12 complete media, or serum-deprived media supplemented with insulin, transferrin, and selenium (Corning, Tewksbury, Mass.). Contractile Force Screening: Human ASM cells were grown to confluence in 96-well plates on custom NuSilTM 8100 elastic substrates (Avantor, Inc., Radnor, Pa.) (R. […] Fluorescent beads (diameter 400 nm) were embedded in the substrate surface to enable traction force calculations based on their displacements. To measure fractions, an inverted epi-fluorescence microscope (DMI 6000B, Leica Inc., Germany) equipped with a heated chamber (37° C.), a monochrome camera ([…]), and a motorized stage was used. Spatial images were recorded of substrate-embedded fluorescent beads at 10× magnification. Based on the bead displacements (resolution 15 μm) relative to a cell-free model, together with knowledge of substrate stiffness and thickness, fractions were computed using the approach of Fourier Transform Traction Cytometry ([…] et al., Pharmacol Ther (2014) 143(1):87-110), modified to the case of cell monolayers ([…] et al., Cell (2007) 129(3):511-22). From each fraction map, the root-mean-squared traction (RMST) value and strain energy were calculated and reported as a measure of normal contraction in the monolayer. On a well-by-well basis, the ratio of the strain energy after vs. before treatment was computed, and all values of a given treatment group were normalized to the mean of each treatment group. Comparison of Statins: […] MA is the immediate product of HMGCR action on HMB-CoA, so addition of MA would reverse the effect of statin inhibition of HMGCR. […] Simvastatin-acid (SA), atorvastatin, pravastatin, and pitavastatin were examined with CFS to determine the dose response of the ASM relaxation effect. […] From each ASM force map, the strain energy (i.e., the energy that is imparted to the substrate by the contractile cells, in pJ) was computed, to represent the average cellular contraction.

[2] = system: precision-cut human lung slices; experiment: Histamine-induced bronchoconstriction in precision-cut human lung slices, pitavastatin and isoproterenol; settings: 30 μM for 30 min after histamine 10 μM 15 min; FIG. 13
Experimental: The experiment was performed under serum-deprived media conditions, n=3-7 airways per group. Changes in lumen narrowing were reported as percentage changes (±SEM) of the pre-treatment state (see FIG. 13). The absolute value of lumen airway area was not statistically different between the pitavastatin and control groups at the pre-treatment state.

ASM cells [3] = experiment: Simulated deep breath (stretch-unstretch), cell mapping rheometry and CFS; type: cell-based, human; settings: 10 μM, 30 min
Experimental: Well-defined biaxial stretch (4 sec duration, 10% magnitude) was imposed using the method of cell mapping rheometry. The strain energy from each ASM force map was computed as a metric of average cellular contraction, and reported as fold changes to the pre-stretch baseline value.
Normal ASM was treated with pitavastatin (1 μM, 24 hrs, n=7), isoproterenol (10 μM, 30 min, n=6) or vehicle (n=7), and examined by CFS as described above. […] Shown are contraction values normalized to the untreated control group. […] The contraction force gradually recovered over 180 seconds. […] All data are reported as mean and standard error of the mean (SEM).

ASM cells [4] = experiment: RealTime-Glo Annexin V Apoptosis and Necrosis assay; type: cell-based, human
Experimental: Lack of apoptosis: Some studies have shown that statins at high enough doses can reduce the viability of vascular smooth muscle cells, epithelial cells, and endothelial cells (S. Ghavami et al., Biochim Biophys Acta (2014) 1843(7):1259-71; T. P. Miettinen et al., Cell Rep (2015) 13(11):2610-20).
RealTime-Glo™ Annexin V Apoptosis and Necrosis assay was performed by growing ASM cells on 96-well white cell culture plate according to the manufacturer's instructions (Promega Inc). […] In this real-time annexin V binding assay, the luminescence signal was detected for apoptosis and necrosis was detected with a fluorescence signal by using a SpectraMax® plate reader. […] (20 μg/mL) was used as a positive control (FIG. 2).

[5] = Tissue distribution of inhaled (nebulized) simvastatin, mass spectrometry; settings: day 12, organs collected after euthanasia

**Q.** Which “strain energy (ASM contraction)” value ([1]; 2 and 10 μM) does the source give for `CC(C)c1c(C(=O)Nc2ccccc2)c(-c2ccccc2)c(-c2ccc(F)cc2)n1CC[C@@H](O)C[C@@H](O)CC(=O)O` [atorvastatin] here?
**A.** significantly (and further) reduce strain energy

**Q.** Which “histamine (Hist)-induced bronchoconstriction” value [2] does the source give for `CC(C)NCC(O)c1ccc(O)c(O)c1` (centres unmarked) [isoproterenol] here?
**A.** reduced

**Q.** And the “basal ASM contraction compared to untreated controls” value (ASM cells [3]; FIG. 12A)?
**A.** significantly inhibited basal ASM contraction

**Q.** And the “augmentation of stretch-induced ASM force relaxation” value (ASM cells [3]; FIG. 12B)?
**A.** not conferred; also recorded: notably absent

**Q.** Which results are given for `CC[C@H](C)C(=O)O[C@H]1C[C@H](O)C=C2C=C[C@H](C)[C@H](CC[C@@H](O)C[C@@H](O)CC(=O)O)[C@H]21` [pravastatin]?
**A.** strain energy (ASM contraction) ([1]; 0.4 μM): no effect; apoptosis and necrosis (cell death) (ASM cells [4]): no evidence of apoptosis or cell death

**Q.** Which “basal ASM cell contraction” value ([1]; 1 μM) does the source give for `CC(C)c1nc(N(C)S(C)(=O)=O)nc(-c2ccc(F)cc2)c1/C=C/[C@@H](O)C[C@@H](O)CC(=O)O` [rosuvastatin] here?
**A.** little to no effect

**Q.** What about the “apoptosis and necrosis (cell death)” value (ASM cells [4]) of the same compound?
**A.** no evidence of apoptosis or cell death

**Q.** With `CCC(C)(C)C(=O)O[C@H]1C[C@@H](C)C=C2C=C[C@H](C)[C@H](CC[C@@H](O)C[C@@H](O)CC(=O)O)[C@H]21` [simvastatin acid] as the compound, how does the “dose-dependent effect on ASM” value ([1]; primary ASM cells from three different human donors, FIG. 3) read?
**A.** dose-dependently relax ASM

**Q.** What about the “start of ASM relaxing effects” value ([1]; time-dependent effects, FIG. 4C) of the same compound?
**A.** 4 h

**Q.** Which results are given for `CCC(C)(C)C(=O)O[C@H]1C[C@@H](C)C=C2C=C[C@H](C)[C@H](CC[C@@H]3C[C@@H](O)CC(=O)O3)[C@H]21` [simvastatin]?
**A.** tissue distribution [5]: mostly present in the mainstem bronchi and the lower lobes; basal ASM cell contraction ([1]; 1 μM): more potent; ASM contraction over time compared to control ([1]; 1 μM, serum-deprived media, FIG. 10B): reduced ASM contraction time-dependently; apoptosis and necrosis (cell death) (ASM cells [4]; statin doses tested, FIGS. 2B-E): no evidence of apoptosis or cell death
